Earlier results in US20060127456A1, “Novel fiber-based consumer products based on new concepts of fiber modification” (priority 2004, published 2006).

II [Iodine]
increase of solubility (in 1% aqueous solution of PVP, versus water): ~17 fold
solubility in water (water): very sparingly soluble
